According to US20050214738A1, “Conditional allele system” (priority 2003, published 2005):
Where a SMILES comes first, the peptide text is derived from it. The star is where a group is joined. Cbz = O=C(OCc1ccccc1)*

How the values were obtained:
FRB*Pax6 [1] = target: T1, FRB*Pax6 (UniProt P26883+P42345, K2095P/T2098L/W2101F); assay: Whole embryo culture, inducible stabilization of FRB*Pax6; set-up: species or system mouse
T1 construct: The minimal FRB domain comprises amino acids 2025-2114 of human mTor; from tissue; host or cells: e13.5 cortical neural cultures (A14) and cultured whole embryos (A15) from Pax6^FRB* knock-in mice; fusion expressed from the targeted endogenous locus
Experimental: Uterine horns were removed from sacrificed mothers to a petri dish containing Hank's Balanced Salt Solution (HBSS), fat was removed and the uterus cut up to isolate embryos. Individual deciduum were carefully removed from the uterus by carefully pulling apart the muscular layers in a fresh petri dish containing HBSS (sometimes supplemented with 2 mg/mL glucose) under a dissecting microscope. Embryos were removed by cutting along the lateral axis of the deciduum with fine forceps taking care not to puncture the embryonic membranes and teasing off the decidual layers overlying the embryo. Embryos were then separated from the remaining decidua at the ectoplacental cone or primitive placenta (depending on the age of the embryo).
Reichert's membrane was grasped without the underlying visceral yolk sac, carefully torn away from the embryo and trimmed back to the placenta without ripping the yolk sac. […] The bottle rotated slowly in a roller bottle chamber at 37° C. Drugs were added directly to the culture media at the commencement of the culture.
Embryos were fixed overnight in 4% paraformaldehyde/PBS then dehydrated through a staged ethanol series. Endogenous peroxidases were inactivated with 5% H2O2 for 4 hours in ethanol and the embryos were rehydrated. […] Embryos were washed in block 6 hours with 1 hour changes and incubated overnight at 4° C. with […] anti-mouse secondary. Embryos were washed with PBS+0.1% Triton X-100 4 times for 1 hour and developed with the DAB peroxidase kit from Vector laboratories.
Embryos were protected with a staged series to 30% sucrose in PBS after fixation in 4% PFA (60 minutes to overnight at 4° C.). Protected embryos were embedded in OCT (VWR) frozen and sectioned on a Leica cryostat to 10 μm. Thin sections were stained according to standard protocols (obtained upon request). Secondary antibodies were purchased from Molecular Probes (Eugene, Oreg.) and primary antibodies to neurofilament, Lim3, Nkx2.2, Pax6, En1, Isl1 were obtained from Dev. Studies. Additional antibodies were from Covance, Zymed or a generous gift of Tadashi Nomura and Noriko Osumi (Sendai, Japan). Immunofluorescence was visualized by confocal microscopy.

GSK-3βFRB* = GSK-3βFRB* (UniProt P26883+P42345, K2095P/T2098L/W2101F); assay: Inducible stabilization of GSK-3βFRB* in knock-in MEFs (Western blot); format: cell-based, mouse; set-up: The minimal FRB domain comprises amino acids 2025-2114 of human mTor; endogenous in cells; host or cells: MEFs from GSK-3β^FRB* knock-in mice (fusion expressed from the targeted endogenous locus); conditions: heterozygous MEFs; for GSK-3βFRB* stability when stabilization is reversed with FK506 in presence of protease inhibitor: inhibitor added 30 minutes before FK506, 9 h
Experimental: MEFs cell lines were prepared from E14.5-E16.5 embryos of indicated genotypes by eviscerating the embryos in HBSS, treating the remaining tissue with 0.2% collagenase and trypsin, and plating the cells in DMEM containing 10% FCS, antibiotics, and 0.1 mM β-mercaptoethanol. Once established, the MEFs were cultured using standard techniques and treated with various small molecules as indicated.
Western Blot analysis was carried out using cell lysates prepared in RIPA buffer (10 mM Tris pH 7.2, 150 mM NaCl, 0.1% SDS, 1% Triton X-100, 1% deoxycholate, 5 mM EDTA, protease inhibitor cocktail (Invitrogen Life Technologies)) and then separated using standard SDS/PAGE before being transferred to PVDF (Millipore) using standard Western blotting procedures. The anti-GSK-3β antibody, used at 1:2500, the anti-HSP-90 antibody, 1:2500, and the anti-FKBP12 antibody, 1:2500, were purchased from BD Transduction Labs. The anti-β-catenin antibody, 1:2000, and anti-HSP-70 antibody, 1:1000 were purchased from Santa Cruz Biotechnology. […] In all cases, Western blots were incubated overnight with the appropriate primary antibodies in TBST (10 mM Tris 8.0, 150 mM NaCl, 0.1% Tween-20) containing 10% dry milk, and then washed 3 times with TBST. The blots were subsequently incubated for 30 minutes with HRP-conjugated secondary antibodies from Jackson Immunoresearch, washed 3 more times with TBST, and then developed using standard ECL reagents (Amersham Biosciences) and Kodak XAR film.

FRB*Pax6 [2] = target: T1, FRB*Pax6; assay: Stabilization of FRB*Pax6 in cortical neural cultures (Western blot); format: cell-based, mouse; conditions: replacement of MaRap after 36 hours; 500 nM after 200 nM MaRap
Description: e13.5 embryos were harvested from a Pax6^FRB*/+ intercross and cortical hemispheres isolated from individuals identified by eye and craniofacial morphology and later confirmed by genotype specific PCR. Pia were removed and neocortex dissected from […] in Hank's balanced salt solution (HBSS). Tissue was minced roughly and placed in centrifuge tubes containing HBSS+20% foetal calf serum. Tissue pieces were allowed to settle and the media was replaced first with HBSS+serum then HBSS alone. The tissue was incubated with 0.1% trypsin+2 mM EDTA 10 minutes at 37° C. then the reaction stopped with HBSS+serum. Cells were triturated to a suspension and plated on 24 well plates coated with matrigel in DMEM (high glucose) supplemented with FCS (5%), N2 (GIBCO) and antibiotics.
Extracts were prepared in RIPA buffer, protein quantified by Bradford Assay (Biorad) and 10 μg of total protein resolved by SDS-PAGE, transferred to PVDF (Millipore) filters and Pax6 or HSP90 identified with specific antibodies (1:1000, Covance and 1:2500 Transduction Laboratories, respectively) incubated 1 hour in TBS+10% nonfat milk. Secondary conjugated to horse radish peroxidase were purchased from Jackson immunochemicals and blots were developed by chemiluminescence (Amersham).

mutant FRBs = assay: SeAP transcriptional switch assay, panel of FRB mutants at 2095, 2098, 2101; format: cell-based, human
Experimental: All FRB mutants were prepared by the Quikchange mutagenesis method (Stratagene) using protocols provided by the manufacturer. Briefly, PCR reactions containing the parent plasmid pBJ5-FRB-VP16-HA or pBJ5-FRB*-VP16-HA and overlapping oligonucleotides containing the relevant base changes were performed with Pfu polymerase (Stratagene, San Diego, Calif.). PCR reactions were digested with the methylation sensitive restriction endonuclease Dpn1 to eliminate the parent plasmid and the reaction was transformed in XL10-Gold Ultracompetent E. coli (Stratagene).
Electroporation details are available upon request. Cells were immediately aliquoted to 2 or 3×96 well plates with flat bottoms. […] Data was analysed with Softmax Pro (Molecular Devices), Microsoft Excel and Prism 3 (GraphPad Software).

embryos = assay: Overt effects on mother and embryos after IP injection of pregnant mice; format: in vivo, mouse; conditions: 10 mg/kg/day, similarly injected
Experimental: GSK-3β^+/FRB* mice were intercrossed and the date of vaginal plug observation was set as E0.5. At E9.5, the stage of embryonic development was confirmed by ultrasonography (Chang, C. P. et al. “Sonographic Staging of the Developmental Status of Mouse Embryos in Utero.” (2003) Published in Genesis 36, 7-11) and mice were weighed. Drug administration commenced at E10.0. […] 100 μL was immediately injected intraperitoneally (IP) to pregnant females with injections repeated twice more at 12 hour intervals to E11.5 when mice were sacrificed, and embryos and organs were dissected and frozen in […]. Tissues anterior to the embryonic forelimbs of individual embryos were used for preparation of protein extracts with the remainder used to determine the concentration of drug and for genotyping.

FRB* = target: T2, FRB* (Homo sapiens, UniProt P42345+P62942, K2095P/T2098L/W2101F); assay: SeAP reporter assay, dimerization of FRB*-VP16 to FKBP3-GAL4DBD in COS-1 cells; format: cell-based; conditions: FRB*(PLF)-VP16; ±95% confidence intervals
T2 construct: The minimal FRB domain comprises amino acids 2025-2114 of human mTor; expressed in transfected cells; host or cells: COS-1 cells
Description: (§1) Transcription activation by recruitment of chimeric transcriptional activation and DNA binding domains is described. COS-1 cells were electroporated with […] each of the following expression plasmids (Ho, S. N., Biggar, S. R., Spencer, D. M., Schreiber, S. L., and Crabtree, G. R. “Dimeric ligands define a role for transcriptional activation domains in reinitiation.” (1996) Nature 382, 822-826): pG5IL2SX (drives transcription of bacterial secreted alkaline phosphatase (SeAP) through GAL4 DNA binding […] elements), pBJ5-GF3E (which expresses the GAL4 DNA binding domain fused to three copies of human FKBP12), and pBJ5-FRBVP. (which expresses a FRB fusion with the Herpes Simplex Virus VP16 Activation domain) A FRB*-VP16 fusion protein which consists of modified FRB protein fused to the VP16 activation domain was also used selectively. Transfected cells were distributed equally to 96 well plates and were incubated at 37° C. for 24 to 36 hours before media was supplemented with drug in a dilution curve in which each point is represented in quadruplicate. Cells were incubated at 37° C. for an additional 24 hours followed by a 2-hour treatment at 65° C. to inactivate endogenous phosphatases. Each well was supplemented with 100μL of 1 mM methylumbelliferylphosphate dissolved in 2 M diethanolamine buffered to pH 10.0 with carbonate and incubated at 37° C. for 16 hours. Fluorescence was measured with a Fluoroscan (ICN) plate reader at 355 nm transmission and 455 nm emission using Deltasoft software.
(§2) Drug efficacy was determined in a three-plasmid transcriptional switch reporter assay. ˜106 COS1 cells were coelectroporated with 2 μg of the DNA binding construct pBJ5-Gal4-FKBP(3), 2 μg pBJ5-VP16 (or the relevant mutant FRB) and 2 μg of the Gal4-SeAP reporter. Electroporation details are available upon request. […] SeAP activity was measured by fluorescence with a Spectamax M2 fluorometer (Molecular Devices, Sunnyvale, Calif.) with transmission set at 355 nm and emmission set at 460 nm. Data was analysed with Softmax Pro (Molecular Devices), Microsoft Excel and Prism 3 (GraphPad Software).

FRB = target: T3, FRB (Homo sapiens, UniProt P42345+P62942); assay: SeAP reporter assay, dimerization of FRB-VP16 to FKBP3-GAL4DBD in COS-1 cells; format: cell-based; conditions: wild-type FRB(KTW)-VP16; ±95% confidence intervals
T3 construct: The minimal FRB domain comprises amino acids 2025-2114 of human mTor; expressed in transfected cells; host or cells: COS-1 cells, electroporated with pBJ5-FRBVP, pBJ5-GF3E and pG5IL2SX
Description: as §1, §2

T1 sequence (P42345 2025-2114 K2095P/T2098L/W2101F): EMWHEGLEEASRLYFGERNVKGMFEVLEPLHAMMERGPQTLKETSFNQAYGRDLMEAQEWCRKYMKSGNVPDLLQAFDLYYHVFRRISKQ
T1 sequence (P26883 2-108): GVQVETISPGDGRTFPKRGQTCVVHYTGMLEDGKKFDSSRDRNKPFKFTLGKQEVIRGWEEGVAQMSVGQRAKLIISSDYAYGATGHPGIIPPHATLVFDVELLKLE
Chain of GSK-3βFRB* (P42345 2025-2114 K2095P/T2098L/W2101F): as the sequence (P42345 2025-2114 K2095P/T2098L/W2101F) above
Chain of GSK-3βFRB* (P26883 2-108): as the sequence (P26883 2-108) above
T3 sequence (P42345 2025-2114): as the sequence (P42345 2025-2114 K2095P/T2098L/W2101F) above, with P71K, L74T, F77W counted along it
T3 sequence (P62942 whole entry, the tested form may be a part): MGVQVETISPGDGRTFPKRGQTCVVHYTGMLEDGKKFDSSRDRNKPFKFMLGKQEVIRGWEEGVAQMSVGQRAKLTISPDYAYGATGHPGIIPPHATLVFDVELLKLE
T2 sequence (P42345 2025-2114 K2095P/T2098L/W2101F): as the sequence (P42345 2025-2114 K2095P/T2098L/W2101F) above
T2 sequence (P62942 whole entry, the tested form may be a part): as the sequence (P62942 whole entry, the tested form may be a part) above

## CO[C@H]1C[C@@H](C)C/C(C)=C/[C@@H](CCOC(=O)NCc2ccccc2)C(=O)C[C@H](O)[C@@H](C)[C@@H](/C(C)=C/[C@@H]2CC[C@@H](O)[C@H](OC)C2)OC(=O)[C@@H]2CCCCN2C(=O)C(=O)[C@]2(O)O[C@H]1[C@@H](OC)C[C@H]2C [FK506M, reference compound]
FRB*Pax6 [1]; 24 hours MaRap then replacement with FK506M
  differentiation of Lim3-positive somatic motor neurons after transient stabilization: fail to differentiate
FRB*Pax6 [1]; 24 hours MaRap then replacement with FK506M (5 μM) 24 hours, e9.5 embryos
  FRB*Pax6 immunoreactivity after transient stabilization: loss of most of the FRB*Pax6 immunoreactivity
GSK-3βFRB*; 300 nM after 100 nM C20-MaRap 36 h
  time for GSK-3βFRB* to return to steady state low levels: less than 9 hours
FRB*Pax6 [2]
  time for stabilized FRB*Pax6 levels to drop to the basal level: ≤ 6 h

## C16-(S)-3-Methylindole rapamycin [C16-iRap]
Mutant FRBs; Phe at 2101, Leu at 2098
  binding to FRB mutants with Trp 2101 Phe substitution, Leu at 2098: fully rescues drug binding
Mutant FRBs; Phe at 2101, Thr at 2098
  binding to FRB mutants with Trp 2101 Phe substitution, Thr at 2098: does not bind

## CO[C@H]1[C@@H](O)[C@H](C)C[C@H](C)/C=C/C=C/C=C(\C)[C@@H](c2c[nH]c3c(C)cccc23)C[C@@H]2CC[C@@H](C)[C@@](O)(O2)C(=O)C(=O)N2CCCC[C@H]2C(=O)O[C@H]([C@H](C)C[C@@H]2CC[C@@H](O)[C@H](OC)C2)C[C@H](O)[C@H](C)/C=C(\C)[C@H]1O [C16-(S)iRap, C16-(S)7-methylindolerapamycin, reference compound]
Mutant FRBs; all mutants
  effectiveness against all mutants relative to C16-BSrap: significantly less effective than C16-BSrap

## CC(C)C[C@@H](C=O)NC(=O)[C@H](CC(C)C)NC(=O)[C@H](CC(C)C)NC(=O)OCc1ccccc1 [MG132, reference compound] (Cbz-Leu-Leu-Leu-aldehyde)
GSK-3βFRB*
  GSK-3βFRB* stability when stabilization is reversed with FK506 in presence of protease inhibitor: remained stable

## CC(=O)N[C@@H](CSC(=O)[C@]1([C@@H](O)C(C)C)NC(=O)[C@H](C)[C@@H]1O)C(=O)O [lactacystin, reference compound]
GSK-3βFRB*
  GSK-3βFRB* stability when stabilization is reversed with FK506 in presence of protease inhibitor: remained stable

## CCOC(=O)[C@H]1O[C@@H]1C(=O)N[C@@H](CC(C)C)C(=O)NCCC(C)C [E-64D, reference compound]
GSK-3βFRB*
  GSK-3βFRB* stability when stabilization is reversed with FK506 in presence of protease inhibitor: did not protect

## CO[C@H]1C[C@@H]2CC[C@@H](C)[C@@](O)(O2)C(=O)C(=O)N2CCCC[C@H]2C(=O)O[C@H]([C@H](C)C[C@@H]2CC[C@@H](O)[C@H](OC)C2)CC(=O)[C@H](C)/C=C(\C)[C@@H](O)[C@@H](OC)C(=O)[C@H](C)C[C@H](C)/C=C/C=C/C=C/1C [rapamycin, reference compound]
embryos
  effect on embryos: produced “flat-top” embryos

## C16-(R)-methallylrapamycin [C16-MaRap]
FRB*
  EC50: 15.9 ± 1.5 nM
FRB
  EC50: 273 ± 13.5 nM
